Reference: patent US7504393B2, “Benzylamine analogues” (priority 2001, dated 2009)
pIC50: −log10 of the molar value. Counter-ions that a name gives are not always drawn. Like-named read-outs stand apart in the source and are kept apart here.

Assays:
[1] = molecular target: T1, acetylcholinesterase (Mus musculus, UniProt P21836); assay: biochemical; settings: for IC50: mouse whole brain homogenate, acetylthiocholine/DTNB, absorbance 412 nm, read-out: IC50 (nM) Acetylcholinesterase inhibitory activity
T1 construct: phosphate buffer solution containing the brain homogenate; from tissue; host or cells: mouse whole brain homogenate
T1 sequence (P21836 32-614): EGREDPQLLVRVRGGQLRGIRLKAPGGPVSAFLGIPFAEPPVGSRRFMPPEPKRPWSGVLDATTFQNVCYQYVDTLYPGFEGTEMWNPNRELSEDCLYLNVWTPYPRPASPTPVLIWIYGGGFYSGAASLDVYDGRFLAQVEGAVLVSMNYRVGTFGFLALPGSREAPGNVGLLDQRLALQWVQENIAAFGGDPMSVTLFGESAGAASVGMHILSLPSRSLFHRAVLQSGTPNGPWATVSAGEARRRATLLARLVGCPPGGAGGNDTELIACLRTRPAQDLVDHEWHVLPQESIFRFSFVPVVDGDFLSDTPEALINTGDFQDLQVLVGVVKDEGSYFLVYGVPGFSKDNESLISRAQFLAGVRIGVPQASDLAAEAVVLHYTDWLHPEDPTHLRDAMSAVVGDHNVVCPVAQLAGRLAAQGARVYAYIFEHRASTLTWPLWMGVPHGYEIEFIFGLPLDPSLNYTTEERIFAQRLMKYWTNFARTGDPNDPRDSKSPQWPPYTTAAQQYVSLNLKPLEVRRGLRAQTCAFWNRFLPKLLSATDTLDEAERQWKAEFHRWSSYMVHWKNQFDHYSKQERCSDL

[2] = molecular target: T2, serotonin re-uptake (Rattus norvegicus, UniProt P31652); assay: Serotonin re-uptake inhibitory activity (synaptosome, [3H]5-HT); type: biochemical; settings: synaptosome from rat whole brain except cerebellum; [3H]5-HT, 37° C.; read-out: IC50 (nM) Serotonin re-uptake inhibitory activity
T2 construct: synaptosome prepared from rat whole brains except the cerebellums; from tissue; host or cells: synaptosomes from rat whole brain except the cerebellum
T2 sequence (P31652 whole entry): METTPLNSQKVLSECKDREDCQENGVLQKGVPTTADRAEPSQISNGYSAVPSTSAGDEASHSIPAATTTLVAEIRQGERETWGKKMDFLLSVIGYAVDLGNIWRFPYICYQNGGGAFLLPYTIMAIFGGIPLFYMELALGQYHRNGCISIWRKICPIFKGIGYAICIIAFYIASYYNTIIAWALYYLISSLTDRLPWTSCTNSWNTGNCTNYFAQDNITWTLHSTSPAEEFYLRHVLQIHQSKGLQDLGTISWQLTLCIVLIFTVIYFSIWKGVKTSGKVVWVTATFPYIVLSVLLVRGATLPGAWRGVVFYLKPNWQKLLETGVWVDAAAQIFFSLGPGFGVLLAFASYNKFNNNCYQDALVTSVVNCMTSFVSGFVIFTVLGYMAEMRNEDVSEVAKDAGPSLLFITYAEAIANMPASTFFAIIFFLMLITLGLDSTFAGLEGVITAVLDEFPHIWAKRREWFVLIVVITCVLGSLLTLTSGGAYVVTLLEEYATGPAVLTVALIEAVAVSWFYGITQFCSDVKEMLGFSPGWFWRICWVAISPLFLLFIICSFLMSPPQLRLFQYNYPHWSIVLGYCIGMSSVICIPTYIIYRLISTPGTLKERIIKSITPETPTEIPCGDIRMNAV
Procedure: Serotonin re-uptake inhibitory activity was determined using synaptosome prepared from rat whole brains except the cerebellums. Briefly, 10 μl of DMSO solution-dissolved test substance (control group; DMSO solution alone) was added to 1 ml of synaptosome and incubated for 5 min at 37° C. (in the control, DMSO alone was added to the synaptosome and incubated at 4° C.). Furthermore, 10 μl of [^3H]5-HT solution (final concentration: 10 μM as a total concentration of 5-HT, 100 nM as [^3H]5-HT) was added and incubated for 5 min at 37° C. Then 4 ml of ice-cold saline was added to stop the response. The response solution was filtered, 4 ml of saline was added, and the solution was once again filtered. Furthermore, 5 ml of Pico-Fluor was added, then ^3H levels on filter papers were counted by a liquid scintillation counter. Concentrations of test compounds to inhibit serotonin re-uptake by 50% (IC50) were calculated.

SMILES	IC50 [1]	IC50 [2]	pIC50 [1]
CN[C@@H](CCOc1ccc([N+](=O)[O-])cc1)c1cccc(OC(=O)N(C)C)c1 [Test Compound 125, (S) -3-[3-(4-Nitrophenoxy)-1-methylaminopropyl]phenyl dimathylcarbamate hydrochloride]	19 nM	841 nM	–
CN[C@@H](CCOc1ccc(Cl)cc1)c1ccc(OC(=O)N(C)C)cc1 [Test Compound 82, (S)-4-[3-(4-Chlorophenoxy)-1-methylaminopropyl]phenyl dimethylcarbamate hydrochloride]	–	377 nM	7.08
CNC(CCOc1cccc(F)c1)c1ccc(OC(=O)N(C)C)cc1 (stereo not drawn) [Test Compound 68, 4-[3-(3-Fluorophenoxy)-1-methylaminopropyl]phenyl dimethylcarbamate hydrochloride]	–	145 nM	6.24
CN(C)C(=O)Oc1ccc([C@@H](CCOc2ccc(F)c(F)c2)N(C)C)cc1 [Test Compound 152, (R)-4-[3-(3,4-Difluorophenoxy)-1-dimethylaminopropyl]phenyl dimethylcarbamate hydrochloride]	–	67 nM	6.51
CNC(CCOc1ccc(Cl)cc1)c1ccc(OC(=O)N(C)C)cc1 (stereo not drawn) [Test Compound 16, 4-[3-(4-Chlorophenoxy)-1-methylaminopropyl]phenyl dimethylcarbamate hydrochloride]	–	493 nM	6.68
CN(C)C(=O)Oc1ccc(C(CCOc2ccc(F)cc2)N(C)C)cc1 (stereo not drawn) [Test Compound 31, hydrochloride]	440 nM	323 nM	–
CN(C)C(=O)Oc1ccc([C@@H](CCOc2ccc([N+](=O)[O-])cc2)N(C)C)cc1 [Test Compound 102, (R)-4-[1-Dimethylamino-3-(4-nitrophenoxy)propyl]phenyl dimethylcarbamate hydrochloride]	–	167 nM	6.77
CNC(CCOc1ccc(Cl)c(F)c1)c1ccc(OC(=O)N(C)C)cc1 (stereo not drawn) [Test Compound 55, 4-[3-(4-Chloro-3-fluorophenoxy)-1-methylaminopropyl]phenyl dimethylcarbamate hydrochloride]	–	60 nM	6.55
CN(C)C(=O)Oc1ccc2c(c1)C(CCOc1ccc(Cl)cc1)N(C)CC2 (stereo not drawn) [Test Compound 191, 2-Methyl-1-[2-(4-chlorophenoxy)-ethyl]-1,2,3,4-tetrahydroisoquinolin-7-yl dimethylcarbamate hydrochloride]	–	520 nM	6.58
Cc1cc(OCCC2c3ccc(OC(=O)N(C)C)cc3C=CCN2C)ccc1Cl (stereo not drawn) [Test Compound 194, 2-Methyl-1-[2-(4-chloro-3-methylphenoxy)-ethyl]-2,3-dihydro-1H-benzo[c]azepin-7-yl dimethylcarbamate hydrochloride]	–	61 nM	6.99
CN(C)C(=O)Oc1ccc([C@@H](CCOc2ccc([N+](=O)[O-])cc2Cl)N(C)C)cc1 [Test Compound 130, (R)-4-[3-(2-Chloro-4-nitrophenoxy)-1-dimethylaminopropyl]phenyl dimethylcarbamate hydrochloride]	–	88 nM	7.38
CN(C)C(=O)Oc1ccc2c(c1)CCCN(C)C2CCOc1ccc([N+](=O)[O-])cc1Cl (stereo not drawn) [Test Compound 193, 2-Methyl-1-[2-(2-chloro-4-nitrophenoxy)-ethyl]-1,3,4,5-tetrahydro-1H-benzo[c]azepin-7-yl dimethylcarbamate hydrochloride]	24 nM	680 nM	–
CN[C@H](CCOc1ccc(Cl)cc1)c1ccc(OC(=O)N(C)C)cc1 [Test Compound 62, (R)-4-[3-(4-Chlorophenoxy)-1-methylaminopropyl]phenyl dimethylcarbamate hydrochloride]	–	343 nM	6.57
CNC(CCOc1ccc2ncccc2c1)c1ccc(OC(=O)N(C)C)cc1 (stereo not drawn) [Test Compound 180, 4-[3-(Quinolin-6-yloxy)-1-methylaminopropyl]phenyl dimethylcarbamate hydrochloride]	–	104 nM	6.95
Cc1cc(OCCC2c3ccc(OC(=O)N(C)C)cc3CCN2C)ccc1Cl (stereo not drawn) [Test Compound 188, 2-Methyl-1-[2-(4-chloro-3-methylphenoxy)-ethyl]-1,2,3,4-tetrahydroisoquinolin-6-yl dimethylcarbamate hydrochloride]	–	150 nM	7.28
CN[C@@H](CCOc1cccc(Cl)c1)c1ccc(OC(=O)N(C)C)cc1 [Test Compound 81, (S)-4-[3-(3-Chlorophenoxy)-1-methylaminopropyl]phenyl dimethylcarbamate hydrochloride]	–	228 nM	6.49
CN[C@@H](CCOc1ccc(F)c(F)c1)c1ccc(OC(=O)N(C)C)cc1 [Test Compound 162, (S)-4-[3-(3,4-Difluorophenoxy)-1-methylaminopropyl]phenyl dimethylcarbamate hydrochloride]	–	594 nM	6.10
CN[C@H](CCOc1cccc(Cl)c1)c1ccc(OC(=O)N(C)C)cc1 [Test Compound 61, (R)-4-[3-(3-Chlorophenoxy)-1-methylaminopropyl]phenyl dimethylcarbamate hydrochloride]	–	182 nM	6.64
CN[C@H](CCOc1ccc([N+](=O)[O-])cc1Cl)c1ccc(OC(=O)N(C)C)cc1 [Test Compound 128, (R)-4-[3-(2-Chloro-4-nitrophenoxy)-1-methylaminopropyl]phenyl dimethylcarbamate hydrochloride]	–	70 nM	7.82
CNC(CCOc1ccc([N+](=O)[O-])cc1Cl)c1ccc(OC(=O)N(C)C)cc1 (stereo not drawn) [Test Compound 124, 4-[3-(2-Chloro-4-nitrophenoxy)-1-methylaminopropyl]phenyl dimethylcarbamate hydrochloride]	–	110 nM	7.19
CN(C)C(=O)Oc1ccc2c(c1)C=CCN(C)C2CCOc1ccc(F)cc1Cl (stereo not drawn) [Test Compound 195, 2-Methyl-1-[2-(2-chloro-4-fluorophenoxy) -ethyl]-2,3-dihydro-1H-benzo[c]azepin-7-yl dimethylcarbamate hydrochloride]	–	44 nM	7.30
CN(C)C(=O)Oc1ccc(C(CCOc2c(F)c(F)c(F)c(F)c2F)N(C)C)cc1 (stereo not drawn) [Test Compound 181, 4-[3-(Pentafluorophenoxy)-1-dimethylaminopropyl]phenyl dimethylcarbamate hydrochloride]	–	44 nM	6.70
CN(C)C(=O)Oc1ccc(C(CCOc2ccc(Cl)cc2)N(C)C)cc1 (stereo not drawn) [Test Compound 41, 4-[3-(4-Chlorophenoxy)-1-dimethylaminopropyl]phenyl dimethylcarbamate hydrochloride]	–	507 nM	7.10
CNC(CCOc1ccc(F)c(F)c1)c1ccc(OC(=O)N(C)C)cc1 (stereo not drawn) [Test Compound 54, 4-[3-(3,4-Difluorophenoxy)-1-methylaminopropyl]phenyl dimethylcarbamate hydrochloride]	–	166 nM	6.17
